In PubChem BioAssay (NCI):
“And” between values parts separate entries of the source, which are not always exact repeats. Equal values may be shown once.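 Results reflect a 48-hour exposure of cells in 96-well plates to compound at five concentrations. Here, GI50 denotes the concentration required for 50% inhibition of growth. TGI: concentration producing complete growth inhibition.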

Tests used:
Assay in all cases: growth of human tumour cells (NCI), 48 h
SF-539 CNS = system: SF-539 CNS
CCRF-CEM leukemia = system: CCRF-CEM leukemia
MOLT-4 leukemia = system: MOLT-4 leukemia
UACC-62 melanoma = system: UACC-62 melanoma
BT-549 breast = system: BT-549 breast
SF-268 CNS = system: SF-268 CNS
MDA-MB-435 = system: MDA-MB-435
LOX IMVI melanoma = system: LOX IMVI melanoma
SF-295 CNS = system: SF-295 CNS
HL-60(TB) leukemia = system: HL-60(TB) leukemia

SMILES | GI50 (SF-539 CNS) | TGI (SF-539 CNS) | GI50 (CCRF-CEM leukemia) | TGI (CCRF-CEM leukemia) | GI50 (MOLT-4 leukemia) | TGI (MOLT-4 leukemia) | GI50 (UACC-62 melanoma) | TGI (UACC-62 melanoma) | GI50 (BT-549 breast) | TGI (BT-549 breast) | GI50 (SF-268 CNS) | TGI (SF-268 CNS) | GI50 (MDA-MB-435) | TGI (MDA-MB-435) | GI50 (LOX IMVI melanoma) | TGI (LOX IMVI melanoma) | GI50 (SF-295 CNS) | TGI (SF-295 CNS) | GI50 (HL-60(TB) leukemia) | TGI (HL-60(TB) leukemia)
Cn1c(=O)c(Oc2ccc(F)cc2F)cc2cnc(NC(CO)CO)nc21 | > 25 µM | > 25 µM | > 25 µM | > 25 µM | > 25 µM | > 25 µM | > 25 µM | > 25 µM | > 25 µM | > 25 µM | > 25 µM | > 25 µM | > 25 µM | > 25 µM | > 25 µM | > 25 µM | > 25 µM | > 25 µM | > 25 µM | > 25 µM
NC1=C(Br)C(=O)c2ncccc2C1=O |  | 0.629 µM |  | 13.7 µM |  | 4.83 µM |  | 0.713 µM | 1.16 µM | 2.57 µM |  | 1.92 µM | 0.168 µM | 0.313 µM |  | 0.655 µM |  | 1.41 µM |  | 2.81 µM
CC(=O)Nc1ccccc1C=C1c2ccccc2-c2ccccc21 |  | 26.5 µM |  | > 100 µM |  | > 100 µM |  | > 100 µM |  | 98.3 µM |  | > 100 µM |  | > 100 µM |  | > 100 µM |  | 46.2 µM |  | > 100 µM
COc1ccc(C/C(C)=C(\c2ccc(OCCN3CCOCC3)cc2)c2ccc(OC(=O)Cc3ccccc3)cc2)cc1 | 0.513 µM | 0.977 µM | 0.813 µM | 8.27 µM | 0.593 µM | 1.91 µM | 0.527 µM | 1.06 µM | 0.502 µM | 0.996 µM | 0.96 µM | 12.8 µM | 0.632 µM | 1.34 µM | 0.56 µM | 1.03 µM | 0.58 µM | 1.12 µM | 0.553 µM | 1.26 µM
CC(C)[C@@]12C[C@@H](OC(=O)COC(=O)/C=C/c3ccccc3)[C@@](C)(O1)[C@@H]1CC[C@@H](C)[C@H]1[C@@H]2OC(=O)/C=C/c1ccccc1 | > 100 µM | > 100 µM | > 100 µM | > 100 µM | > 100 µM | > 100 µM | > 100 µM | > 100 µM | 0.508 µM | > 100 µM |  | > 100 µM | > 100 µM | > 100 µM | > 100 µM | > 100 µM | > 100 µM | > 100 µM | > 92.2 µM | > 100 µM
CCc1cccc2c3c(sc12)C(c1ccc(Cl)cc1)C(C#N)=C(N)O3 (configuration not stated) | 0.36 µM | 1.56 µM | 0.391 µM | 21.4 µM | 0.59 µM | 27.6 µM | 0.351 µM | 5.27 µM | 0.983 µM | 15.6 µM | 0.933 µM | 22.2 µM | 0.196 µM | 0.463 µM | 0.545 µM | 4.22 µM | 0.306 µM | 1.17 µM | 0.355 µM | 9.48 µM
COc1ccc(-c2cnnn2-c2cc(OC)c3c(c2)OCO3)cc1 | 0.116 µM | 0.411 µM | 0.148 µM | > 100 µM | 0.266 µM | > 27.2 µM | 0.235 µM | > 100 µM | 0.101 µM | 28.6 µM | 0.775 µM | > 100 µM | 0.0202 µM | 0.0512 µM | 0.491 µM | > 100 µM | 0.0585 µM | > 100 µM | 0.0761 µM | 2.72 µM
CCc1ccccc1N1CCN(C(=O)c2cc(OC)c(OC)c(OC)c2)CC1 |  | 0.12 µM |  | > 100 µM |  | 41.4 µM |  | > 68.8 µM |  | 5.87 µM |  | > 100 µM |  | < 0.0113 µM |  | 29.3 µM |  | 0.0341 µM |  | 1.62 µM
COc1cc2c3c(n(CCCNCC(OC)OC)c(=O)c2cc1OC)-c1cc2c(cc1C3=O)OCO2 | 2.42 µM | 24.9 µM | < 0.01 µM | 1.8 µM | < 0.01 µM | 1.14 µM | 1.63 µM | 22.6 µM | 4.06 µM | > 29.6 µM | 1.05 µM | > 55.1 µM | 10.4 µM | 97 µM | 1.46 µM | > 29.8 µM | 0.303 µM | 49.4 µM | 2.6 µM | > 28.3 µM
CN1CCN(c2nc(NCCCCNc3ccnc4cc(Cl)ccc34)c3ccccc3n2)CC1 | 1.62 µM | 3.25 µM | 2.62 µM | 93.9 µM | 3.08 µM | 20 µM | 1.96 µM | 3.9 µM | 3.45 µM | 15 µM | 10.7 µM | 33.9 µM | 1.97 µM | 4.25 µM | 1.89 µM | 4.19 µM | 1.84 µM | 3.73 µM | 1.87 µM | 4.23 µM
COc1cc(Cn2c(=S)ss/c2=N\C(=S)N(C)C)cc(OC)c1OC |  | > 57.7 µM |  | > 77.5 µM |  | > 100 µM |  | 58.6 µM |  | > 100 µM |  | > 75.7 µM |  | 15.8 µM |  | > 100 µM |  | 38.5 µM |  | > 61.5 µM
C=C1CC2(C[C@@H](c3ccccc3)O[C@@H](c3ccccc3)C2)OC1=O (some centres not stated) |  | 4.94 µM |  | 5.34 µM |  | 5.61 µM |  | 7.7 µM |  | 4.24 µM |  | 23.6 µM |  | 7.48 µM |  | 2.84 µM |  | 26.8 µM |  | 2.84 µM
Cn1ccnc1C(=O)/C=C/c1ccc(CC(=O)Nc2ccc(S(F)(F)(F)(F)F)cc2)cc1 | 1.02 µM | 3.26 µM | 0.538 µM | 16.7 µM | 0.578 µM | 1.51 µM | 2.89 µM | 5.87 µM | 2.5 µM | 5.29 µM | 1.88 µM | 4.86 µM | 4.04 µM | 12.5 µM | 1.19 µM | 3.34 µM | 2.16 µM | 4.73 µM | 0.62 µM | 4.47 µM
COC1(O)C(=O)c2ccccc2OC1(OC)c1ccccc1 (configuration not stated) |  | > 100 µM |  | > 100 µM |  | > 100 µM |  | > 100 µM |  | > 100 µM |  | > 100 µM |  | > 100 µM |  | > 100 µM |  | > 100 µM |  | > 100 µM
CS(=O)(=O)c1ccc(-c2cnc(N)c(C(=O)Nc3ccccc3)n2)cc1 | 6.81 µM | > 100 µM | 4 µM | > 100 µM | 3.4 µM | > 100 µM | > 51.9 µM | > 100 µM | 7.87 µM | 40.8 µM | 25 µM | > 100 µM | > 100 µM | > 100 µM | 4.2 µM | > 100 µM | 24.2 µM | > 100 µM | 5.62 µM | > 100 µM
CN(C)c1ccc(-c2cc(-c3ccc(Nc4nc(Nc5ccccc5)nc(Nc5ccc(Cl)cc5)n4)cc3)nc(N)n2)cc1 | 5.61 µM | 23.5 µM | 3.73 µM | 23 µM | 1.8 µM | 7.87 µM | 6.26 µM | 40 µM | 3.64 µM | 25 µM | 6.69 µM | 56.4 µM | 4.83 µM | 74.9 µM | 5.03 µM | 46.2 µM | 2.4 µM | 16.6 µM | 3.2 µM | 12.2 µM
C=CCNCCCN1C(=O)c2ccc3c4c(ccc(c24)C1=O)C(=O)N(CCCNCC=C)C3=O | 0.584 µM | 2.41 µM | 0.349 µM | 3.78 µM | 0.335 µM | 1.68 µM | 0.684 µM | 1.76 µM | 1.78 µM | 3.63 µM | 0.557 µM | 4.41 µM | 0.199 µM | 0.434 µM | 0.316 µM | 0.97 µM | 0.2 µM | 0.955 µM | 0.383 µM | 1.41 µM
C=C(C)C(=O)OC1CC2=CC(CC3(C)OC3C3OC(=O)C(=C)C13)OC2=O (configuration not stated) |  | 18.3 µM | 1.63 µM | 5.59 µM |  | 15 µM |  | 22 µM |  | 25 µM |  | 47.3 µM |  | 30.2 µM |  | 8.99 µM |  | 32.7 µM | 0.749 µM | 
O=C1/C(=C/c2ccccc2F)CNC/C1=C\c1ccccc1F | 0.269 µM and 0.87 µM | 0.828 µM and 2.99 µM | 0.193 µM and 0.314 µM | 3.38 µM and 1.61 µM | 0.425 µM and 0.738 µM | 1.76 µM and 3.13 µM | 6.38 µM and 1.5 µM | 10.3 µM and 3.72 µM | 0.434 µM and 0.782 µM | 1.43 µM and 2.25 µM | 0.62 µM and 0.309 µM | 5.37 µM and 1.21 µM | 0.482 µM and 0.472 µM | 1.46 µM and 1.92 µM | 0.318 µM and 0.186 µM | 1.22 µM and 0.461 µM | 0.707 µM and 0.531 µM | 3.5 µM and 1.71 µM | 0.371 µM and 2.04 µM | 1.96 µM and 6.92 µM
COc1cc(C(O)c2nc3ccccc3s2)cc(OC)c1OC (configuration not stated) | > 100 µM | > 100 µM | 49.5 µM | > 100 µM | 18.1 µM | > 100 µM | 37.8 µM | > 100 µM | 60.6 µM | > 100 µM | > 100 µM | > 100 µM | 20.4 µM | > 100 µM | 50.6 µM | > 100 µM | 6.29 µM | > 100 µM | 14.2 µM | > 100 µM
NC(=O)c1oc([N+](=O)[O-])c(-c2ccccc2)c1-c1ccccc1 |  | 38.1 µM |  | 38.9 µM |  | 96.6 µM |  | 21.3 µM |  | 40.6 µM |  | > 100 µM |  | 28.7 µM |  | 29.1 µM |  | 35.3 µM |  | 70 µM
